Tests used:
KRAS G12V = KRAS G12V (Homo sapiens, UniProt P01116, G12V); test: GDP-GTP exchange assay (KRAS G12V); assay type: biochemical; settings: bodipy-GDP/GppNHp exchange with SOS1; 3 h incubation after GppNHp-SOS1
Protocol: (§1) The inhibitor potency of the exemplified compounds was determined in a fluorescence based guanine nucleotide exchange assay, which measures the exchange of bodipy-GDP (fluorescently labeled GDP) for GppNHp (Non-hydrolyzable GTP analog) to generate the active state of KRAS in the presence of SOS1 (guanine nucleotide exchange factor). Inhibitors were serially diluted in DMSO and a volume of 0.1 μL was transferred to the wells of a black low volume 384-well plate. 5 μL/well volume of bodipy-loaded KRAS G12D diluted to 2.5 nM in assay buffer (25 mM Hepes pH 7.5, 50 mM NaCl, 10 mM MgCl2 and 0.01% Brij-35) was added to the plate and pre-incubated with inhibitor for 4 h at r.t. Appropriate controls (enzyme with no inhibitor or with a G12D inhibitor) were included on the plate. The exchange was initiated by the addition of a 5 μL/well volume containing 1 mM GppNHp and 300 nM SOS1 in assay buffer. The 10 μL/well reaction concentration of the bodipy-loaded KRAS G12D, GppNHp, and SOS1 were 2.5 nM, 500 μM, and 150 nM, respectively. The reaction plates were incubated at r.t. for 2 h, a time estimated for complete GDP-GTP exchange in the absence of inhibitor. For the KRAS G12V mutant, similar guanine nucleotide exchange assays were used with 2.5 nM as final concentration for the bodipy loaded KRAS proteins and 3 h incubation after adding GppNHp-SOS1 mixture. A cyclic peptide described to selectively bind G12D mutant (Sakamoto et al., BBRC 484.3 (2017), 605-611) or internal compounds with confirmed binding were used as positive controls in the assay plates. Fluorescence intensities were measured on a PheraStar plate reader instrument (BMG Labtech) with excitation at 485 nm and emission at 520 nm.
(§2) Either GraphPad prism or Genedata Screener SmartFit was used to analyze the data. The IC50 values were derived by fitting the data to a four parameter logistic equation producing a sigmoidal dose-response curve with a variable Hill coefficient.
(§3) The symbol “⬆” indicates IC50 100 nM, “⬆⬆” indicates IC50 >100 nM but ≤1 μM; and “⬆⬆⬆” indicates IC50 is >1 μM but ≤5 μM, “⬆⬆⬆⬆” indicates IC50 is >5 μM but ≤10 μM. “NA” indicates IC50 not available.

KRAS G12D = KRAS G12D (Homo sapiens, UniProt P01116, G12D); test: GDP-GTP exchange assay (KRAS G12D); assay type: biochemical; settings: bodipy-GDP/GppNHp exchange with SOS1; 4 h pre-incubation, 2 h reaction
Sequence of KRAS G12D (P01116 1-188 isoform P01116-2 G12D): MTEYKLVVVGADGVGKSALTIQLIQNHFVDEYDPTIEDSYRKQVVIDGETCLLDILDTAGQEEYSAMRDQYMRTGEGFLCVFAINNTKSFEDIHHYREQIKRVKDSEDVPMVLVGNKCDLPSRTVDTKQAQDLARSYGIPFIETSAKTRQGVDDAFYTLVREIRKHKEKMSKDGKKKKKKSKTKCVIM
Protocol: as §1, §2, §3
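Further: one dagger IC50 up to 100 nM and two daggers above 100 nM up to 1 μM.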

Sequence of KRAS G12V (P01116 1-188 isoform P01116-2 G12V): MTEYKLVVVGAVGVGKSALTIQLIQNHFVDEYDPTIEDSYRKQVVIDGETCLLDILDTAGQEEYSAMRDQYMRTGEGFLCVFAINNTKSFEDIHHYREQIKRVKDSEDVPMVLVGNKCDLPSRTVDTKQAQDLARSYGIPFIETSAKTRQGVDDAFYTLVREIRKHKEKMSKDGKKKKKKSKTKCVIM

SMILES | G12V_exchange (KRAS_G12V exchange assay IC50) (KRAS G12V) | G12D_exchange (KRAS_G12D exchange assay IC50) (KRAS G12D)
Cc1nc2c(F)c(-c3cccc(Cl)c3Cl)c(CCC#N)cc2c2c1cc([C@H]1[C@H]3C[C@H](CN(c4ncc(C(F)F)s4)C3)N1C(=O)C1CC1)n2[C@H]1[C@H]2CN[C@@H]1C2 (atropisomer, axis not shown; (Ra)) [Example 102, 3-((Ra)-1-((1R,4R,5S)-2-azabicyclo[2.1.1]hexan-5-yl)-2-((1S,5R,7R)-6-(cyclopropanecarbonyl)-3-(5-(difluoromethyl)thiazol-2-yl)-3,6-diazabicyclo[3.2.1]octan-7-yl)-7-(2,3-dichlorophenyl)-6-fluoro-4-methyl-1H-pyrrolo[3,2-c]quinolin-8-yl)propanenitrile] | † | †
Cc1nc2c(F)c(-c3cccc(Cl)c3Cl)c(CCC#N)cc2c2c1cc([C@H]1[C@H]3C[C@H](CN(c4cc(C(F)(F)F)cc(C(F)(F)F)c4)C3)N1C(=O)C1CC1)n2[C@H]1[C@H]2CN[C@@H]1C2 (atropisomer, axis not shown; (Ra)) [Example 18, 3-((Ra)-1-((1R,4R,5S)-2-azabicyclo[2.1.1]hexan-5-yl)-2-((1S,5R,7R)-3-(3,5-bis(trifluoromethyl)phenyl)-6-(cyclopropanecarbonyl)-3,6-diazabicyclo[3.2.1]octan-7-yl)-7-(2,3-dichlorophenyl)-6-fluoro-4-methyl-1H-pyrrolo[3,2-c]quinolin-8-yl)propanenitrile] | † | ††
Cc1nc2c(F)c(-c3cccc(Cl)c3Cl)c(CCC#N)cc2c2c1cc([C@H]1[C@H]3C[C@H](CN(c4ncc(C)n4C)C3)N1C(=O)C1CC1)n2[C@H]1[C@H]2CN[C@@H]1C2 (atropisomer, axis not shown; (Ra)) [Example 101, 3-((Ra)-1-((1R,4R,5S)-2-azabicyclo[2.1.1]hexan-5-yl)-2-((1S,5R,7R)-6-(cyclopropanecarbonyl)-3-(1,5-dimethyl-1H-imidazol-2-yl)-3,6-diazabicyclo[3.2.1]octan-7-yl)-7-(2,3-dichlorophenyl)-6-fluoro-4-methyl-1H-pyrrolo[3,2-c]quinolin-8-yl)propanenitrile] | † | †
Cc1nc2c(F)c(-c3cccc(Cl)c3Cl)c(CCC#N)cc2c2c1cc([C@H]1[C@H]3C[C@H](CN(c4cccc(=O)n4C)C3)N1C(=O)C1CC1)n2[C@H]1[C@H]2CN[C@@H]1C2 (atropisomer, axis not shown; (Ra)) [Example 57, 3-((Ra)-1-((1R,4R,5S)-2-azabicyclo[2.1.1]hexan-5-yl)-2-((1S,5R,7R)-6-(cyclopropanecarbonyl)-3-(1-methyl-6-oxo-1,6-dihydropyridin-2-yl)-3,6-diazabicyclo[3.2.1]octan-7-yl)-7-(2,3-dichlorophenyl)-6-fluoro-4-methyl-1H-pyrrolo[3,2-c]quinolin-8-yl)propanenitrile] | † | ††
Cc1nc2c(F)c(-c3cccc(Cl)c3Cl)c(CCC#N)cc2c2c1cc([C@H]1[C@H]3C[C@H](CN(c4cc(C(C)(F)F)ncn4)C3)N1C(=O)CO)n2[C@H]1[C@H]2CN[C@@H]1C2 (atropisomer, axis not shown; (Ra)) [Example 129, 3-((Ra)-1-((1R,4R,5S)-2-azabicyclo[2.1.1]hexan-5-yl)-7-(2,3-dichlorophenyl)-2-((1 S,5R,7R)-3-(6-(1,1-difluoroethyl)pyrimidin-4-yl)-6-(2-hydroxyacetyl)-3,6-diazabicyclo[3.2.1]octan-7-yl)-6-fluoro-4-methyl-1H-pyrrolo[3,2-c]quinolin-8-yl)propanenitrile] | † | –
Cc1nc2c(F)c(-c3cccc(Cl)c3Cl)c(CCC#N)cc2c2c1cc(C1C3CC(CN(C4CCCCC4)C3)N1C(=O)C1CC1)n2C1C2CNC1C2 (atropisomer, axis not shown; (Ra)) [Example 114, 3-((Ra)-1-((1R,4R,5S)-2-Azabicyclo[2.1.1]hexan-5-yl)-2-((1R,5R,7R)-3-cyclohexyl-6-(cyclopropanecarbonyl)-3,6-diazabicyclo[3.2.1]octan-7-yl)-7-(2,3-dichlorophenyl)-6-fluoro-4-methyl-1H-pyrrolo[3,2-c]quinolin-8-yl)propanenitrile] | † | †
Cc1nc2c(F)c(-c3cccc(Cl)c3Cl)c(CCC#N)cc2c2c1cc([C@H]1[C@H]3C[C@H](C(=O)N(c4ccc(C(F)(F)F)cc4)C3)N1C(=O)C1CC1)n2[C@H]1[C@H]2CN[C@@H]1C2 (atropisomer, axis not shown; (Ra)) [Example 120b, 3-((Ra)-1-((1R,4R,5S)-2-Azabicyclo[2.1.1]hexan-5-yl)-2-((1S,5R,7R)-6-(cyclopropanecarbonyl)-4-oxo-3-(4-(trifluoromethyl)phenyl)-3,6-diazabicyclo[3.2.1]octan-7-yl)-7-(2,3-dichlorophenyl)-6-fluoro-4-methyl-1H-pyrrolo[3,2-c]quinolin-8-yl)propanenitrile] | † | †
Cc1nc2c(F)c(-c3cccc(Cl)c3Cl)c(CCC#N)cc2c2c1cc([C@H]1[C@H]3C[C@H](CN(c4cc(C)n(C)c(=O)c4)C3)N1C(=O)C1CC1)n2[C@H]1[C@H]2CN[C@@H]1C2 (atropisomer, axis not shown; (Ra)) [Example 66, 3-((Ra)-1-((1R,4R,5S)-2-azabicyclo[2.1.1]hexan-5-yl)-2-((1S,5R,7R)-6-(cyclopropanecarbonyl)-3-(1,6-dimethyl-2-oxo-1,2-dihydropyridin-4-yl)-3,6-diazabicyclo[3.2.1]octan-7-yl)-7-(2,3-dichlorophenyl)-6-fluoro-4-methyl-1H-pyrrolo[3,2-c]quinolin-8-yl)propanenitrile] | † | †
Cc1nc2c(F)c(-c3cccc(Cl)c3Cl)c(CCC#N)cc2c2c1cc([C@H]1[C@H]3C[C@H](CN(c4ccc(C(F)(F)F)cc4)C3=O)N1C(=O)C1CC1)n2[C@H]1[C@H]2CN[C@@H]1C2 (atropisomer, axis not shown; (Ra)) [Example 120a, 3-((Ra)-1-((1R,4R,5S)-2-Azabicyclo[2.1.1]hexan-5-yl)-2-((1R,5R,7R)-6-(cyclopropanecarbonyl)-2-oxo-3-(4-(trifluoromethyl)phenyl)-3,6-diazabicyclo[3.2.1]octan-7-yl)-7-(2,3-dichlorophenyl)-6-fluoro-4-methyl-1H-pyrrolo[3,2-c]quinolin-8-yl)propanenitrile] | † | ††
[2H]C1([2H])[C@@H]2C[C@H](CN1c1ncc(C(C)C)s1)N(C(=O)C1CC1)[C@H]2c1cc2c(C)nc3c(F)c(-c4cccc(Cl)c4Cl)c(CCC#N)cc3c2n1[C@H]1[C@H]2CN[C@@H]1C2 (atropisomer, axis not shown; (Ra)) [Example 123, 3-((Ra)-1-((1R,4R,5S)-2-Azabicyclo[2.1.1]hexan-5-yl)-2-((1 S,5R,7R)-6-(cyclopropanecarbonyl)-3-(5-isopropylthiazol-2-yl)-3,6-diazabicyclo[3.2.1]octan-7-yl-2,2-d2)-7-(2,3-dichlorophenyl)-6-fluoro-4-methyl-1H-pyrrolo[3,2-c]quinolin-8-yl)propanenitrile] | † | ††
Cc1nc2c(F)c(-c3cccc(Cl)c3Cl)c(CCC#N)cc2c2c1cc([C@H]1[C@H]3C[C@H](CN(c4cnn(C)c4)C3)N1C(=O)C1CC1)n2[C@H]1[C@H]2CN[C@@H]1C2 (atropisomer, axis not shown; (Ra)) [Example 11, 3-((Ra)-1-((1R,4R,5S)-2-azabicyclo[2.1.1]hexan-5-yl)-2-((1S,5R,7R)-6-(cyclopropanecarbonyl)-3-(1-methyl-1H-pyrazol-4-yl)-3,6-diazabicyclo[3.2.1]octan-7-yl)-7-(2,3-dichlorophenyl)-6-fluoro-4-methyl-1H-pyrrolo[3,2-c]quinolin-8-yl)propanenitrile] | † | †

Source: US20250195536A1, “BICYCLOOCTANE KRAS INHIBITORS” (Incyte Corporation, priority 2023, published 2025)
